Test results published in ChEMBL document CHEMBL4340516, “Synthesis and antitumor activity of novel steroidal imidazolium salt derivatives” (Eur J Med Chem, 2019).

Experiments:
Assay type in all cases: functional, cell-based
[1] = system: HL-60; test: Antiproliferative activity against human HL60 cells assessed as reduction in cell viability incubated for 48 hrs by MTS assay; details: HL-60, 48 h
[2] = system: SMMC-7721; test: Antiproliferative activity against human SMMC7721 cells assessed as reduction in cell viability incubated for 48 hrs by MTS assay; details: SMMC-7721, 48 h
[3] = system: MCF7; test: Antiproliferative activity against human MCF7 cells assessed as reduction in cell viability incubated for 48 hrs by MTS assay; details: MCF7, 48 h
[4] = system: A549; test: Antiproliferative activity against human A549 cells assessed as reduction in cell viability incubated for 48 hrs by MTS assay; details: A549, 48 h
[5] = system: SW480; test: Antiproliferative activity against human SW480 cells assessed as reduction in cell viability incubated for 48 hrs by MTS assay; details: SW480, 48 h

IC50 [1] | IC50 [2] | IC50 [3] | IC50 [4] | IC50 [5] | Structure (SMILES)
4.47 µM | 1.56 µM | 8.97 µM | 7.31 µM | 10.6 µM | CC(C)CCC[C@@H](C)[C@H]1CC[C@H]2[C@@H]3CC=C4C[C@H](n5c[n+](Cc6ccccc6Br)c6ccccc65)CC[C@]4(C)[C@H]3CC[C@]12C
6.42 µM | 14.9 µM | 7.25 µM | > 20 µM | 9.78 µM | C[C@]12CC[C@H]3[C@@H](CC=C4C[C@@H](O)CC[C@@]43C)[C@@H]1CC[C@@H]2n1cc[n+](CC(=O)c2cccc(Br)c2)c1
1.36 µM | 1.75 µM | 1.53 µM | 1.77 µM | 1.74 µM | C[C@@H]1CC[C@@]2(OC1)O[C@H]1C[C@H]3[C@@H]4CC=C5C[C@H](n6c[n+](CC(=O)c7cccc(Br)c7)c7ccccc76)CC[C@]5(C)[C@H]4CC[C@]3(C)[C@H]1[C@@H]2C
1.48 µM | 3.83 µM | 4.84 µM | 6.52 µM | 6.87 µM | CC(=O)O[C@H]1CC[C@@]2(C)C(=CC[C@H]3[C@@H]4CC[C@H](n5cc[n+](Cc6ccccc6Br)c5)[C@@]4(C)CC[C@@H]32)C1
1.24 µM | 4.58 µM | 3.86 µM | 6.6 µM | 6.33 µM | C[C@@H]1CC[C@@]2(OC1)O[C@H]1C[C@H]3[C@@H]4C[C@H](n5cc[n+](Cc6ccccc6Br)c5)[C@]56C[C@H]5CC[C@]6(C)[C@H]4CC[C@]3(C)[C@H]1[C@@H]2C
0.92 µM | 2.27 µM | 1.88 µM | 2.99 µM | 5.37 µM | C[C@@H]1CC[C@@]2(OC1)O[C@H]1C[C@H]3[C@@H]4CC=C5C[C@@H](n6cc[n+](Cc7ccccc7Br)c6)CC[C@]5(C)[C@H]4CC[C@]3(C)[C@H]1[C@@H]2C
7.97 µM | 1.52 µM | 8.71 µM | 8.75 µM | 10.7 µM | COc1ccc(C(=O)C[n+]2ccn([C@H]3CC[C@@]4(C)C(=CC[C@H]5[C@@H]6CC[C@H]([C@H](C)CCCC(C)C)[C@@]6(C)CC[C@@H]54)C3)c2)cc1
1.22 µM | 2.45 µM | 2.53 µM | 4.74 µM | 5.64 µM | CC(=O)O[C@H]1CC[C@@]2(C)C(=CC[C@H]3[C@@H]4CC[C@H](n5cc[n+](Cc6ccc7ccccc7c6)c5)[C@@]4(C)CC[C@@H]32)C1
6 µM | 2.9 µM | 5.25 µM | 13.2 µM | 4.87 µM | COc1ccc(C(=O)C[n+]2ccn([C@@H]3CC[C@@]4(C)C(=CC[C@H]5[C@@H]6CC[C@H]([C@H](C)CCCC(C)C)[C@@]6(C)CC[C@@H]54)C3)c2)cc1
1.25 µM | 7.32 µM | 4.49 µM | 7.18 µM | 7.03 µM | COc1ccc(C(=O)C[n+]2ccn([C@H]3C[C@H]4[C@@H]5C[C@@H]6O[C@]7(CC[C@@H](C)CO7)[C@@H](C)[C@@H]6[C@@]5(C)CC[C@@H]4[C@@]4(C)CC[C@@H]5C[C@]534)c2)cc1
1.18 µM | 2.14 µM | 5.66 µM | 1.86 µM | 7.96 µM | C[C@@H]1CC[C@@]2(OC1)O[C@H]1C[C@H]3[C@@H]4CC=C5C[C@@H](n6cc[n+](CC(=O)c7ccccc7)c6)CC[C@]5(C)[C@H]4CC[C@]3(C)[C@H]1[C@@H]2C
2 µM | 2.12 µM | > 20 µM | 11.7 µM | 16.4 µM | CC(C)CCC[C@@H](C)[C@H]1CC[C@H]2[C@@H]3C[C@H](n4ccnc4)[C@]45C[C@H]4CC[C@]5(C)[C@H]3CC[C@]12C

Structure (SMILES) | IC50 [1] | IC50 [2] | IC50 [3] | IC50 [4] | IC50 [5]
Cc1cc2nc[nH]c2cc1C [DIMEDAZOL] | > 20 µM | > 20 µM | > 20 µM | > 20 µM | > 20 µM
